Data from ChEMBL document CHEMBL5042539, “Structure-Guided Discovery of the Novel Covalent Allosteric Site and Covalent Inhibitors of Fructose-1,6-Bisphosphate Aldolase to Overcome the Azole Resistance of Candidiasis” (J Med Chem, 2022).
Values after ≈ are worked out from the molar mass of the structure shown. Active and inactive are the calls of the source. No cut-off for these calls is given here.

Assays:
Candida albicans [1] = test: Inhibition of wild type Candida albicans Fructose-1,6-Bisphosphate Aldolase transfected in Escherichia coli BL21 (DE3) at 50 uM incubated for 3 mins in presence of NADH by spectrophotometric analysis relative to control
[2] = Inhibition of wild type Candida albicans Fructose-1,6-Bisphosphate Aldolase transfected in Escherichia coli BL21 (DE3) incubated for 3 mins in presence of NADH by spectrophotometric analysis
Candida albicans [3] = test: Antifungal activity against fluconazole resistant Candida albicans 904 incubated for 48 hrs by CLSI based broth microdilution method; assay type: functional
Candida albicans [4] = test: Antifungal activity against fluconazole resistant Candida albicans 103 incubated for 48 hrs by CLSI based broth microdilution method; assay type: functional
Candida albicans [5] = test: Antifungal activity against azole-resistant Candida albicans 030410 assessed as inhibition of fungal filamentation by measuring reduction in yeast-hypha transition at 32 ug/ml by microscopic analysis; assay type: functional, organism-based; conditions: dose 32.0 µg/ml
Candida albicans [6] = test: Antifungal activity against fluconazole resistant Candida albicans 7781 incubated for 48 hrs by CLSI based broth microdilution method; assay type: functional
[7] = Cytotoxicity against human HaCaT cells; assay type: toxicity, cell-based
Candida albicans [8] = test: Antibiofilm activity against azole resistant Candida albicans 0304103 assessed as inhibition of biofilm formation by XTT assay; assay type: functional, organism-based; conditions: dose 0-64 µg/ml
Candida albicans [9] = test: Antifungal activity against Candida albicans SC5314 incubated for 48 hrs by CLSI based broth microdilution method; assay type: functional
[10] = Inhibition of Candida albicans Fructose-1,6-Bisphosphate Aldolase C111S mutant transfected in Escherichia coli BL21 (DE3) incubated for 3 mins in presence of NADH by spectrophotometric analysis
Candida albicans [11] = test: Selectivity ratio of IC50 for inhibition of Candida albicans Fructose-1,6-Bisphosphate Aldolase C292S mutant to IC50 for inhibition of wild type Candida albicans Fructose-1,6-Bisphosphate Aldolase
[12] = Inhibition of Candida albicans Fructose-1,6-Bisphosphate Aldolase C292S mutant transfected in Escherichia coli BL21 (DE3) incubated for 3 mins in presence of NADH by spectrophotometric analysis
[13] = Inhibition of Candida albicans Fructose-1,6-Bisphosphate Aldolase C157S mutant transfected in Escherichia coli BL21 (DE3) incubated for 3 mins in presence of NADH by spectrophotometric analysis
Candida albicans [14] = test: Inhibition of wild type Candida albicans Fructose-1,6-Bisphosphate Aldolase transfected in Escherichia coli BL21 (DE3) at 100 uM incubated for 3 mins in presence of NADH by spectrophotometric analysis relative to control
Candida albicans [15] = test: Binding affinity to Candida albicans Fructose-1,6-Bisphosphate Aldolase assessed as ratio of kinact/Ki incubated for 12 to 40 mins by NADH-linked enzymatic assay; conditions: time 12-40 min
[16] = Binding affinity to Candida albicans Fructose-1,6-Bisphosphate Aldolase assessed as inhibition constant incubated for 12 to 40 mins by NADH-linked enzymatic assay
Candida albicans [17] = test: Binding affinity to Candida albicans Fructose-1,6-Bisphosphate Aldolase assessed as Kinact incubated for 12 to 40 mins by NADH-linked enzymatic assay; conditions: time 12-40 min

| SMILES | IC50 [2] [µM] | MIC80 (Candida albicans [3]) [mg/L] | MIC80 (Candida albicans [4]) [mg/L] | MIC80 (Candida albicans [6]) [mg/L] | MIC80 (Candida albicans [9]) [mg/L] | other results |
| --- | --- | --- | --- | --- | --- | --- |
| C[C@@H]1O[C@@H]1P(=O)(O)O |  |  |  |  |  | inhibition (Candida albicans [1]): 0.32% |
| O=C(Cc1ccccc1)n1sc2ccccc2c1=O | 0.488 |  |  |  |  |  |
| CCc1ccc(-n2[se]c3ccccc3c2=O)cc1 | 0.092 | 4 (≈ 13.2 µM) | 1 (≈ 3.31 µM) | 2 (≈ 6.62 µM) | 4 (≈ 13.2 µM) | Activity (Candida albicans [5]): Active; IC50 [7]: > 32 µM; Activity (Candida albicans [8]): Dose-Dependent Effect |
| O=c1c2ccccc2[se]n1-c1nncs1 | 0.155 |  |  |  |  | IC50 [10]: 0.303 µM; Ratio IC50 (Candida albicans [11]): 11.3; IC50 [12]: 1.75 µM; IC50 [13]: 0.227 µM |
| CCCCc1ccc(-n2[se]c3ccccc3c2=O)cc1 | 0.1 | 8 (≈ 24.2 µM) | 4 (≈ 12.1 µM) | 4 (≈ 12.1 µM) | 8 (≈ 24.2 µM) |  |
| O=C(C(=O)n1sc2ccccc2c1=O)c1ccccc1 | 15.7 |  |  |  |  |  |
| CCCCCCNC(=O)n1cc(F)c(=O)[nH]c1=O |  |  |  |  |  | inhibition (Candida albicans [1]): 62.2% |
| O=C(NCc1ccccc1)N1Cc2ccccc2C1=O | > 100 | > 64 | > 64 | > 64 | > 64 | inhibition (Candida albicans [14]): < 50% |
| O=c1c2ccccc2[se]n1Cc1ccccc1 | 0.118 | 4 (≈ 13.9 µM) | 4 (≈ 13.9 µM) | 4 (≈ 13.9 µM) | 2 (≈ 6.94 µM) |  |
| N#Cc1ccc(-n2[se]c3ccccc3c2=O)cc1 | 0.0389 | 16 (≈ 53.5 µM) | 16 (≈ 53.5 µM) | 8 (≈ 26.7 µM) | 8 (≈ 26.7 µM) |  |
| CC(=O)c1ccc(-n2[se]c3ccccc3c2=O)cc1 | 0.0173 | 16 (≈ 50.6 µM) | 8 (≈ 25.3 µM) | 8 (≈ 25.3 µM) | 16 (≈ 50.6 µM) |  |
| COc1ccc(-n2[se]c3ccccc3c2=O)cc1 | 0.091 | 4 (≈ 13.1 µM) | 4 (≈ 13.1 µM) | 4 (≈ 13.1 µM) | 4 (≈ 13.1 µM) |  |
| O=c1c2ccccc2[se]n1-c1ccc(-c2ccccc2)cc1 | 0.06 | 64 (≈ 183 µM) | 64 (≈ 183 µM) | 64 (≈ 183 µM) | 32 (≈ 91.4 µM) |  |
| O=c1c2ccccc2[se]n1-c1ccc(-n2cncn2)cc1 | 0.038 | 4 (≈ 11.7 µM) | 8 (≈ 23.4 µM) | 8 (≈ 23.4 µM) | 8 (≈ 23.4 µM) | Ratio (Candida albicans [15]): 10.4 M⁻¹ s⁻¹; IC50 [7]: > 32 µM; Ki [16]: 0.486 µM; Kinact (Candida albicans [17]): 0.00506 s⁻¹ |
| O=c1c2ccccc2[se]n1Nc1ccccc1 | 0.0963 |  |  |  |  |  |
| NC(=O)c1ccc(-n2[se]c3ccccc3c2=O)cc1 | 0.085 | 64 (≈ 202 µM) | 64 (≈ 202 µM) | 64 (≈ 202 µM) | 64 (≈ 202 µM) |  |
| O=c1c2ccccc2[se]n1-c1ccc(C(F)(F)F)cc1 | 0.013 | 8 (≈ 23.4 µM) | 4 (≈ 11.7 µM) | 4 (≈ 11.7 µM) | 4 (≈ 11.7 µM) | Ratio (Candida albicans [15]): 15.9 M⁻¹ s⁻¹; IC50 [7]: > 32 µM; Ki [16]: 0.058 µM; Kinact (Candida albicans [17]): 0.00092 s⁻¹ |
| O=c1c2ccccc2[se]n1-c1ccc(N2CCOCC2)cc1 | 0.13 |  |  |  |  |  |
| O=c1c2ccccc2[se]n1-c1ccc(-n2ccnc2)cc1 | 0.0458 | 4 (≈ 11.8 µM) | 4 (≈ 11.8 µM) | 4 (≈ 11.8 µM) | 4 (≈ 11.8 µM) | Activity (Candida albicans [5]): Active; Activity (Candida albicans [8]): Dose-Dependent Effect |
| O=C1c2ccccc2CN1c1ccccc1 | > 100 | > 64 | > 64 | > 64 | > 64 | inhibition (Candida albicans [14]): < 50% |
| O=C(NCc1ccccc1)n1sc2ccccc2c1=O | 0.37 |  |  |  |  |  |
| COC(=O)c1ccc(-n2[se]c3ccccc3c2=O)cc1 | 0.12 | 8 (≈ 24.1 µM) | 4 (≈ 12 µM) | 8 (≈ 24.1 µM) | 8 (≈ 24.1 µM) |  |
| O=c1c2ccccc2[se]n1-c1ccccn1 | 0.0727 | 2 (≈ 7.27 µM) | 4 (≈ 14.5 µM) | 4 (≈ 14.5 µM) | 4 (≈ 14.5 µM) |  |
